Measurements reported in patent US20260001914A1, “MACROCYCLIC PEPTIDES TARGETING KRAS” (Merck Sharp & Dohme LLC, priority 2022, published 2026).
*1 amine or outer side, *2 acyl side, *3 side chain or, on linkers, in order; H or OH if unused. Where a SMILES comes first, the peptide text is derived from it. Bridges are numbered along the chain shown (N, C = ends). [ ]: non-standard residue; d: D form. X34 = O=C(C[C@@H](Cc1ccccc1)C(=O)[*:2])C12CC(CN[*:1])(C1)C2; Phe(4-guanidino) = N=C(N)Nc1ccc(C[C@H](N)C(=O)O)cc1; Ala(pyrimidin-5-yl) = N[C@@H](Cc1cncnc1)C(=O)O; X29 = CC(=O)N(C)CCC[C@@H](C(=O)[*:2])N(C)[*:1]; NMe3Pal(6-Me) = CN[C@@H](Cc1ccc(C)nc1)C(=O)O; X6 = O=C([C@H](Cc1cnn(C2COC2)c1)N[*:1])[*:2]; NMe3Pal(5-F) = CN[C@@H](Cc1cncc(F)c1)C(=O)O; NMePhe(3-Me) = CN[C@@H](Cc1cccc(C)c1)C(=O)O; X43 = CN([C@@H](Cc1cnccc1F)C(=O)[*:2])[*:1]; X27 = Cc1ccc(C[C@H](N[*:1])C(=O)[*:2])cn1; X10 = CS(=O)(=O)CCCCN(CC(=O)[*:2])[*:1]; X15 = O=C([C@H](Cc1cnccc1F)N[*:1])[*:2]; Nle(5,5-F2) = CC(F)(F)CC[C@H](N)C(=O)O; Phe(4-Me) = Cc1ccc(C[C@H](N)C(=O)O)cc1; Ala(cPent) = N[C@@H](CC1CCCC1)C(=O)O; Phe(2-F) = N[C@@H](Cc1ccccc1F)C(=O)O; NMe3Pal = CN[C@@H](Cc1cccnc1)C(=O)O; X1 = O=C(C12CC(CN[*:1])(C1)C2)[*:2]; X12 = CC(=O)NCCCN(CC(=O)[*:2])[*:1]; X41 = COCCC[C@H](N[*:1])C(=O)[*:2]; NMeOrn(Me) = CNCCC[C@H](NC)C(=O)O; Ala(cPr) = N[C@@H](CC1CC1)C(=O)O; NMeF = CN[C@@H](Cc1ccccc1)C(=O)O; PhLac = O=C(O)[C@@H](O)Cc1ccccc1; 3Pal = N[C@@H](Cc1cccnc1)C(=O)O; Ahp(2) = CCCCC[C@H](N)C(=O)O; Ala(CN) = N#CC[C@H](N)C(=O)O; Cba = N[C@@H](CC1CCC1)C(=O)O; hLeu = CC(C)CC[C@H](N)C(=O)O; αMeC = C[C@](N)(CS)C(=O)O; NMeA = CN[C@@H](C)C(=O)O; Nle = CCCC[C@H](N)C(=O)O

The compounds below were run against phosphorylation levels of ERK1/2 in AsPC-1 (homozygous KRAS-G12D) cells (Homo sapiens, UniProt P01116, G12D) (assay: Cellular phospho-ERK assay in AsPC-1 cells (Alpha Screen), assay medium without fetal bovine serum). Settings: phospho-ERK AlphaScreen, 18 h.
phosphorylation levels of ERK1/2 in AsPC-1 (homozygous KRAS-G12D) cells, sequence (P01116 1-186 G12D): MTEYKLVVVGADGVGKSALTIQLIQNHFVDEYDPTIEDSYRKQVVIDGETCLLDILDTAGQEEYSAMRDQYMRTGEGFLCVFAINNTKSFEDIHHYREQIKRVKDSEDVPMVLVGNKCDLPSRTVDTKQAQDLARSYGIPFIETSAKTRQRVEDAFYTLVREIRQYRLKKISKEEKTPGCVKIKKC
Type: cell-based
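Note: signal taken as phospho-ERK over total ERK per well, both detected in one multiplex bead assay, EC50 from four-parameter logistic fit of dose-response curves.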

| Compound | EC50 [µM] |
| --- | --- |
| CCCC[C@@H]1NC(=O)[C@H](Cc2ccccc2F)NC(=O)[C@H](CC2CCCC2)NC(=O)[C@H](Cc2cncnc2)NC(=O)[C@H](C)N(C)C(=O)[C@H](Cc2ccccc2)OC(=O)C23CC(CNC(=O)[C@H](Cc4cccnc4)N(C)C1=O)(C2)C3 [compound 126, cyclo(FLac-NMeA-PyrimAla-cPeA-Phe2F-Nle-NMe3Pal-amBCP)] (cyclo([Ala(cPent)][Phe(2-F)][Nle][NMe3Pal][X1][PhLac][NMeA][Ala(pyrimidin-5-yl)])) | 17.4 |
| C[C@H]1C(=O)N[C@@H](Cc2cccnc2)C(=O)N[C@@H](CC2CCC2)C(=O)N[C@@H](Cc2ccccc2F)C(=O)N[C@@H](CCC(C)(F)F)C(=O)N(C)[C@@H](Cc2cncc(F)c2)C(=O)NCC23CC(C2)(C3)C(=O)O[C@@H](Cc2ccccc2)C(=O)N1C [compound 285, cyclo(FLac-NMeA-3Pal-cBuA-Phe2F-Nle3F2-NMe3Pal5F-amBCP)] (cyclo([3Pal][Cba][Phe(2-F)][Nle(5,5-F2)][NMe3Pal(5-F)][X1][PhLac][NMeA])) | 5.78 |
| CCCCC[C@@H]1NC(=O)[C@H](Cc2ccc(OC)cc2)NC(=O)[C@H](CC2CCC2)NC(=O)[C@H](Cc2cccnc2)NC(=O)[C@H](CCCNC(=N)N)NC(=O)[C@H](Cc2ccccc2F)NC(=O)CSC[C@@](C)(C(N)=O)NC(=O)[C@H](Cc2ccccc2)N(C)C1=O [compound 370, cyclo(Phe2F-R-3Pal-cBuA-TyrOMe-Ahp-NMeF-aMeCl-ClAc)] | > 50.8 |
| C[C@H]1C(=O)N[C@@H](Cc2cncnc2)C(=O)N[C@@H](CC2CC2)C(=O)N[C@@H](Cc2ccccc2F)C(=O)N[C@@H](CCC(C)(F)F)C(=O)N(C)[C@@H](Cc2ccccc2)C(=O)NCC23CC(C2)(C3)C(=O)C[C@@H](Cc2ccccc2)C(=O)N1C [compound 290, cyclo(CPhe-NMeA~PyrimAla-cPrA-Phe2F-Nle3F2-NMeF-amBCP)] (cyclo([Ala(cPr)][Phe(2-F)][Nle(5,5-F2)][NMeF][X34][NMeA][Ala(pyrimidin-5-yl)])) | 1.07 |
| CCCC[C@@H]1NC(=O)[C@H](Cc2cccnc2)NC(=O)[C@H](C)N(C)C(=O)[C@H](Cc2ccc(C)nc2)NC(=O)C23CC(CNC(=O)[C@H](Cc4cccnc4)N(C)C(=O)[C@H](CCCC)NC(=O)[C@H](Cc4ccccc4F)NC1=O)(C2)C3 [compound 164, cyclo(4Me3Pal-NMeA-3Pal-Nle-Phe2F-Nle-NMe3Pal-amBCP)] (cyclo([3Pal][Nle][Phe(2-F)][Nle][NMe3Pal][X1][X27][NMeA])) | > 50.8 |
| C[C@H]1C(=O)N[C@@H](Cc2cncnc2)C(=O)N[C@@H](CC2CCC2)C(=O)N[C@@H](Cc2ccccc2F)C(=O)N[C@@H](CCC(C)(F)F)C(=O)N(C)[C@@H](Cc2ccccc2)C(=O)NCC23CC(C2)(C3)C(=O)O[C@@H](Cc2ccccc2)C(=O)N1C [compound 224, cyclo(FLac-NMcA-PyrimAla-cBuA-Phe2F-Nle3F2-NMeF-amBCP)] (cyclo([Cba][Phe(2-F)][Nle(5,5-F2)][NMeF][X1][PhLac][NMeA][Ala(pyrimidin-5-yl)])) | 0.542 |
| CCCC[C@@H]1NC(=O)[C@H](Cc2cccnc2)NC(=O)[C@H](C)N(C)C(=O)[C@H](Cc2ccc(C)cc2)NC(=O)C23CC(CNC(=O)[C@H](Cc4cccnc4)N(C)C(=O)[C@H](CCCC)NC(=O)[C@H](Cc4ccccc4F)NC1=O)(C2)C3 [compound 170, cyclo(Phe4Me-NMeA-3Pal-Nle-Phe2F-Nle-NMe3Pal-amBCP)] (cyclo([3Pal][Nle][Phe(2-F)][Nle][NMe3Pal][X1][Phe(4-Me)][NMeA])) | 37.2 |
| CCCC[C@@H]1NC(=O)[C@H](Cc2cccnc2)NC(=O)[C@H](CC#N)NC(=O)[C@H](Cc2ccccc2)OC(=O)C23CC(CNC(=O)[C@H](Cc4cccnc4)N(C)C(=O)[C@H](CCCC)NC(=O)[C@H](Cc4ccccc4F)NC1=O)(C2)C3 [compound 252, cyclo(FLac-AlaCN-3Pal-Nle-Phe2F-Nle-NMe3Pal-amBCP)] (cyclo([3Pal][Nle][Phe(2-F)][Nle][NMe3Pal][X1][PhLac][Ala(CN)])) | > 50.8 |
| CC(C)CC[C@@H]1NC(=O)[C@H](Cc2ccccc2F)NC(=O)[C@H](CC2CC2)NC(=O)[C@H](Cc2cnn(C3COC3)c2)NC(=O)[C@H](C)N(C)C(=O)[C@H](Cc2ccccc2)OC(=O)C23CC(CNC(=O)[C@H](Cc4cccnc4)N(C)C1=O)(C2)C3 [compound 301, cyclo(FLac-NMeA-AlaPyz1Ox-cPrA-Phe2F-hL-NMe3Pal-amBCP)] (cyclo([Ala(cPr)][Phe(2-F)][hLeu][NMe3Pal][X1][PhLac][NMeA][X6])) | 39.5 |
| CC(C)CC[C@@H]1NC(=O)[C@H](Cc2ccccc2F)NC(=O)[C@H](CC2CC2)NC(=O)[C@H](Cc2cncnc2)NC(=O)[C@H](C)N(C)C(=O)[C@H](Cc2ccccc2)OC(=O)C23CC(CNC(=O)[C@H](Cc4ccccc4)N(C)C1=O)(C2)C3 [compound 260, cyclo(FLac-NMeA-PyrimAla-cPrA-Phe2F-hL-NMeF-amBCP)] (cyclo([Ala(cPr)][Phe(2-F)][hLeu][NMeF][X1][PhLac][NMeA][Ala(pyrimidin-5-yl)])) | 0.167 |
| CCCCC[C@@H]1NC(=O)[C@H](Cc2ccc(OC)cc2)NC(=O)[C@H](CC2CCC2)NC(=O)[C@H](Cc2ccc(N3CCC[C@H]3CN)cc2)NC(=O)[C@H](CCCNC(=N)N)NC(=O)[C@H](Cc2ccccc2)NC(=O)CSC[C@@](C)(C(N)=O)NC(=O)[C@H](Cc2ccccc2)N(C)C1=O [compound 392, cyclo(F-R-Phe4SamPyrr-cBuA-TyrOMe-Ahp-NMeF-aMeCl-ClAc)] | > 50.8 |
| CCCCC[C@@H]1NC(=O)[C@H](Cc2ccc(OC)cc2)NC(=O)[C@H](CC2CCC2)NC(=O)[C@H](Cc2cccnc2)NC(=O)[C@H](CCCNC)N(C)C(=O)[C@H](Cc2ccccc2)NC(=O)CSC[C@@](C)(C(N)=O)NC(=O)[C@H](Cc2ccc(C)nc2)N(C)C1=O [compound 393, cyclo(F-NMeOrnMe-3Pal-cBuA-TyrOMe-Ahp-NMe3Pal4Me-aMeCl-ClAc)] ({CH2CO}-F[NMeOrn(Me)][3Pal][Cba]Y(Me)[Ahp(2)][NMe3Pal(6-Me)][αMeC]-NH2; thioether N-8) | > 50.8 |
| CCCC[C@@H]1NC(=O)[C@H](Cc2cccnc2)NC(=O)[C@H](C)N(C)C(=O)[C@H](Cc2ccccc2)OC(=O)C23CC(CNC(=O)[C@H](Cc4ccccc4)N(C)C(=O)[C@H](CCCC)NC(=O)[C@H](Cc4ccccc4F)NC1=O)(C2)C3 [compound 236, cyclo(FLac-NMeA-3Pal-Nle-Phe2F-Nle-NMeF-amBCP)] (cyclo([3Pal][Nle][Phe(2-F)][Nle][NMeF][X1][PhLac][NMeA])) | 1.44 |
| CCCC[C@@H]1NC(=O)[C@H](CCCOC)NC(=O)[C@H](CC2CCC2)NC(=O)[C@H](Cc2cccnc2)NC(=O)[C@H](CCCNC(=N)N)NC(=O)[C@H](Cc2ccccc2)NC(=O)CSC[C@@](C)(C(N)=O)NC(=O)[C@H](Cc2ccccc2)N(C)C1=O [compound 55, cyclo(F-R-3Pal-cBuA-NvaOMe-Nle-NMeF-aMeCl-ClAc)] ({CH2CO}-FR[3Pal][Cba][X41][Nle][NMeF][αMeC]-NH2; thioether N-8) | > 50.8 |
| CCCCC[C@@H]1NC(=O)[C@H](Cc2ccc(OC)cc2)NC(=O)[C@H](CC2CCC2)NC(=O)[C@H](Cc2ccc(NC(=N)N)cc2)NC(=O)CN(CCCNC(C)=O)C(=O)[C@H](Cc2ccccc2)NC(=O)CSC[C@@](C)(C(N)=O)NC(=O)[C@H](Cc2ccccc2)N(C)C1=O [compound 387, cyclo(F-AcApG-Phe4Gn-cBuA-TyrOMe-Ahp-NMcF-aMeCl-ClAc)] ({CH2CO}-F[X12][Phe(4-guanidino)][Cba]Y(Me)[Ahp(2)][NMeF][αMeC]-NH2; thioether N-8) | > 50.8 |
| Cc1cccc(C[C@H]2C(=O)NCC34CC(C3)(C4)C(=O)O[C@@H](Cc3ccccc3)C(=O)N(C)[C@@H](C)C(=O)N[C@@H](Cc3cncnc3)C(=O)N[C@@H](CC3CC3)C(=O)N[C@@H](Cc3cnccc3F)C(=O)N[C@@H](CCC(C)C)C(=O)N2C)c1 [compound 278, cyclo(FLac-NMeA-PyrimAla-cPrA-3Pal6F-hL-NMePhe3Me-amBCP)] (cyclo([Ala(cPr)][X15][hLeu][NMePhe(3-Me)][X1][PhLac][NMeA][Ala(pyrimidin-5-yl)])) | 4 |
| C[C@H]1C(=O)N[C@@H](Cc2cncnc2)C(=O)N[C@@H](CC2CC2)C(=O)N[C@@H](Cc2ccccc2F)C(=O)N[C@@H](CC2CC2)C(=O)N(C)[C@@H](Cc2ccccc2)C(=O)NCC23CC(C2)(C3)C(=O)O[C@@H](Cc2ccccc2)C(=O)N1C [compound 267, cyclo(FLac-NMeA-PyrimAla-cPrA-Phe2F-cPrA-NMeF-amBCP)] (cyclo([Ala(cPr)][NMeF][X1][PhLac][NMeA][Ala(pyrimidin-5-yl)][Ala(cPr)][Phe(2-F)])) | 9.13 |
| CCCC[C@@H]1NC(=O)[C@H](Cc2ccc(C(F)(F)F)nc2)NC(=O)[C@H](CCCn2ccnc2)N(C)C(=O)[C@H](Cc2ccccc2)OC(=O)C23CC(CNC(=O)[C@H](Cc4ccccc4)N(C)C(=O)[C@H](CCCC)NC(=O)[C@H](Cc4ccccc4F)NC1=O)(C2)C3 (single isomer, unassigned) [compound 219, cyclo(FLac-NMeNvaImid-4CF33Pal-Nle-Phe2F-Nle-NMeF-amBCP)] | > 50.8 |
| CCCC[C@@H]1NC(=O)[C@H](Cc2cccnc2)NC(=O)CN(CCCCS(C)(=O)=O)C(=O)[C@H](Cc2ccccc2)OC(=O)C23CC(CNC(=O)[C@H](Cc4cccnc4)N(C)C(=O)[C@H](CCCC)NC(=O)[C@H](Cc4ccccc4F)NC1=O)(C2)C3 [compound 407, cyclo(FLac-NOHmsbGly-3Pal-Nle-Phe2F-Nle-NMe3Pal-amBCP)] (cyclo([3Pal][Nle][Phe(2-F)][Nle][NMe3Pal][X1][PhLac][X10])) | > 50.8 |
| CCCC[C@@H]1NC(=O)[C@H](Cc2cccnc2)NC(=O)[C@H](CCCN(C)C(C)=O)N(C)C(=O)[C@H](Cc2ccccc2)OC(=O)C23CC(CNC(=O)[C@H](Cc4cccnc4)N(C)C(=O)[C@H](CCCC)NC(=O)[C@H](Cc4ccccc4F)NC1=O)(C2)C3 [compound 405, cyclo(FLac-NMeOrnAc-3Pal-Nle-Phe2F-Nle-NMe3Pal-amBCP)] (cyclo([3Pal][Nle][Phe(2-F)][Nle][NMe3Pal][X1][PhLac][X29])) | > 50.8 |
| CC(C)CC[C@@H]1NC(=O)[C@H](Cc2ccccc2F)NC(=O)[C@H](CC2CC2)NC(=O)[C@H](Cc2cncnc2)NC(=O)[C@H](C)N(C)C(=O)[C@H](Cc2ccccc2)OC(=O)C23CC(CNC(=O)[C@H](Cc4cnccc4F)N(C)C1=O)(C2)C3 [compound 338, cyclo(FLac-NMeA-PyrimAla-cPrA-Phe2F-hL-NMe3Pal6F-amBCP)] (cyclo([Ala(cPr)][Phe(2-F)][hLeu][X43][X1][PhLac][NMeA][Ala(pyrimidin-5-yl)])) | 1.86 |
